In patent US9522192B2 (EPITECH GROUP S.r.l., priority 2012, dated 2016):
Where two headings read alike, the source gives them in different places.

Key:
[1] = system: carrageenan-induced hyperalgesia; test: Mechanical hyperalgesia after λ-carrageenan injection into the paw, topical application; assay type: in vivo, mice; conditions: for anti-hyperalgesic activity (paw withdrawal latency): topical on paw, dose equimolar to 1 mg PEA/paw, evaluated 2-96 h after carrageenan; for anti-hyperalgesic effect at earlier times: 2 and 4 h after application
Protocol: Male Swiss mice weighing 25 to 30 g were purchased from Harlan (Udine, Italy). They were housed in stainless steel cages in a room kept at 22±1° C. on a 12/12-h light/dark cycle. […] Each group of mice (n=6) was applied with 0.05 ml of ethanol solutions on dorsal surface of the left paw. After 5 minutes the animal received 50 μl of 1% λ-carrageenan in sterile saline injected into the treated paw. Absolute ethanol was used as vehicle in control animals. […] Mechanical hyperalgesia was assessed by measuring of latency (s) to withdraw the paw from a constant mechanical pressure exerted onto its dorsal surface. A 15-g calibrated glass cylindrical rod (diameter=10 mm) […] to a conical point (diameter=3 mm) was used to exert the mechanical force. The weight was suspended vertically between two rings attached to a stand and was free to move vertically. A cut off time of 90 sec. was used. Results are expressed as mean±S.E.M. of n experiments. All analyses were conducted using Graph-Pad Prism (GraphPad Software Inc., San Diego, Calif.). The significance of differences between groups was determined by Student t-test (for ex vivo experiments) and two-way analysis of variance (ANOVA) followed by Bonferroni post hoc tests for multiple comparisons (for in vivo experiments). Difference with P<0.05 (*) was considered statistically significant.

[2] = system: carrageenan-induced paw oedema; test: Carrageenan-induced paw oedema, topical application; assay type: in vivo, mice; conditions: for anti-inflammatory activity (paw volume / paw oedema): topical on paw, dose equimolar to 1 mg PEA/paw, evaluated 2-96 h after carrageenan; for anti-inflammatory effect at earlier times: 2 and 4 h after application
Protocol: Male Swiss mice weighing 25 to 30 g were purchased from Harlan (Udine, Italy). They were housed in stainless steel cages in a room kept at 22±1° C. on a 12/12-h light/dark cycle. […] Each group of mice (n=6) was applied with 0.05 ml of ethanol solutions on dorsal surface of the left paw. After 5 minutes the animal received 50 μl of 1% λ-carrageenan in sterile saline injected into the treated paw. Absolute ethanol was used as vehicle in control animals. […] Paw oedema development was measured by a plethysmometer (Ugo Basile, Milan, Italy). The increase in paw volume was evaluated as the difference between the paw volume measured at each time point and the basal paw volume measured at time 0 (before drug application and carrageenan injection). Results are expressed as mean±S.E.M. of n experiments. All analyses were conducted using Graph-Pad Prism (GraphPad Software Inc., San Diego, Calif.). The significance of differences between groups was determined by Student t-test (for ex vivo experiments) and two-way analysis of variance (ANOVA) followed by Bonferroni post hoc tests for multiple comparisons (for in vivo experiments). Difference with P<0.05 (*) was considered statistically significant.

[3] = mouse, in vivo
Protocol: (§1) Frozen tissues samples were weighed and homogenized in a solution of methanol and a serine protease inhibitor, phenylmethylsulphonyl fluoride (PMSF, 1 mM). Then, homogenate tissues were subjected to methanol-chloroform-water (1:2:1, v/v/v) extraction. After centrifugation, the organic layer was carefully removed, transferred to another vial and purified by silica gel (60-Å, 230-400 mesh) micro-columns.
(§2) Molecules of interest were isolated by small-scale chromatography. Glass microcolumns (5 cm, ø 50 mm) were used. 1 ml of a mixture (1/1 v/v) of chloroform and silica gel (0.04-0.063 mm, 230-400 mesh, Macherey-Nagel) was used to load the columns. Samples were dissolved in 1 ml of chloroform and then loaded. Columns were washed with 1 ml of chloroform and 2 ml of chloroform/methanol (9/1 v/v), thus obtaining the fractions of interest that were collected and evaporated in vacuum. The extraction method was validated in blank experiments by treating skin with a known amount of each analyzed compound. Recovery percentages were calculated as well and they resulted higher than 85% for all the tested products.
(§3) HPLC analysis was performed on a Jasco apparatus (Jasco inc., Easton, Md., USA) composed by a quaternary gradient pump (PU 2089 Plus), a 25 μl Rheodyne injection valve and a multi-wave length UV detector (MD 2010 Plus). […] The specificity (absence of interfering peak from skin samples) was assessed as well.

[4] = Skin accumulation and PEA release after topical application on the paw (lipid extraction, HPLC)
Protocol: as §1, §2, §3

Water solubility = assay type: physicochemical
[5] = after local application, 1.72 mg/paw
[6] = after local application, 1.6 mg/paw
[7] = 6-96 h after topical application

## CCCCCCCCCCCCCCCC(=O)NCCOC(=O)CCC(=O)OCCOCCOCCO [derivative 8b, N-Palmitoylethanolamine-O-(succinyl(triethylene glycol))]
[1]; [5]
  time from which anti-hyperalgesic activity is significant: ≥ 2 days
[1]
  anti-hyperalgesic activity (paw withdrawal latency): significant
[2]; [5]
  time from which anti-inflammatory activity is significant: ≥ 2 days
[2]
  anti-inflammatory activity (paw volume / paw oedema): significant
[3]
  accumulation in the skin: accumulate in the skin and release PEA

## CCCCCCCCCCCCCCCC(=O)NCCOC(=O)CCC(=O)OCCOCCO [derivative 8a, N-Palmitoylethanolamine-O-(succinyl(diethylene glycol))]
[1]
  anti-hyperalgesic effect at earlier times: No effect
  anti-hyperalgesic activity (paw withdrawal latency): significant
[1]; [6]
  anti-hyperalgesic activity lasting up to: up to 72 h
[2]
  anti-inflammatory effect at earlier times: No effect
  anti-inflammatory activity (paw volume / paw oedema): significant
[2]; [6]
  anti-inflammatory activity lasting up to: up to 72 h
[4]; after topical application
  PEA release sustained / maintained up to: up to 72 hours
  accumulation in the skin: accumulate in the skin and release PEA
  kinetic release of PEA in the skin: faster release
  start of PEA release (relevant amount of PEA detectable): 2 h
[4]; whole period of analysis
  total amount accumulated in the skin (PEA+derivative) relative to PEA alone: ~10 times

## N-[2-methoxypolyethylene glycol(5000)-O-carbonyl-oxy-ethyl]-palmitamide [Example 7]
Water solubility
  Water solubility: > 10000 µg/mL

## CCCCCCCCCCCCCCCC(=O)NCCO [PEA, Palmitoylethanolamide, reference compound]
[1]
  anti-hyperalgesic effect at earlier times: significant
  anti-hyperalgesic activity (paw withdrawal latency): markedly reduced
[1]; [7]
  anti-hyperalgesic effect at later times: no effect
[2]
  anti-inflammatory effect at earlier times: significant
  anti-inflammatory activity (paw volume / paw oedema): markedly reduced
[2]; [7]
  anti-inflammatory effect at later times: no effect
[4]; after 24 h
  PEA levels in the skin: return to baseline
